The test system of one test is IEC-6 cells. In words: Mitochondrial membrane potential by JC-1 staining in irradiated IEC-6 cells (Example 13). Conditions: JAC4 24 h pretreatment + 12 Gy, 24 h after. The test is classed as cell-based. On the procedure: IEC-6 cells were pretreated for 24 h with JAC4 ([…]) or DMSO and subjected to radiation (12 Gy) treatment. After 24 h the ROS produced in the IEC-6 cells was determined with a DCFH probe, the apoptosis of IEC-6 cells was determined by Hoechst staining, the mitochondrial membrane potential in IEC-6 cells was determined by JC-1 staining, and the apoptotic IEC-6 cell ratio of cells different treatments and the red/green fluorescence ratio in IEC-6 cells after different treatments were calculated (**p<0.01 and ***p<0.001).

The test system of the next test is JWA^IEC-ko mice. The experiment in a line: X-ray-induced intestinal injury in intestinal epithelial JWA-knockout mice (Example 12). Particulars: JAC4 10 mg/kg daily, ABI 10 Gy. The test is classed as in vivo. An excerpt: The Model Animal Research Institute of Nanjing University was commissioned to conduct the construction of JWA^flox/+ A129 mice and embryo cryopreservation, preservation, and thawing. These mice were bred with wild-type C57/BL6 mice for over six generations to give mice of C57/BL6 background. Villin-cre mice, provided by Shanghai Model Organisms Center, Inc., were C57/BL6 mice. The JWA-knockout mice (JWA^ko) and their littermate control (JWA^wt) counterparts were derived from an in-house conservation breed. The JWA^flox/flox mice were bred from the JWA^flox/+ mice. The intestinal epithelial JWA-knockout mice (JWA^IEC-ko) and control group (JWA^IEC-wt) were obtained through breeding JWA^flex/flex mice with Villin-cre mice.
The off-target model was established using JWA^IEC-ko mice and their JWA^IEC-wt littermates (8 weeks old), and the mice receiving radiation were divided into 4 groups: (1) a JWA^IEC-wt mice+vehicle group (n=5); (2) a JWA^IEC-wt mice+JAC4 group (n=5); (3) a JWA^IEC-ko mice+vehicle group (n=6); (4) a JWA^IEC-ko mice+JAC4 group (n=5). All mice were subjected to abdominal irradiation at 10 Gy. 7 days before radiation, 10 mg/kg JAC4 or an equal volume of vehicle (polyethylene glycol:ethanol:physiological saline=40:7.5:52.5, v/v/v) was administered intragastrically daily until the end of modeling. The blank control group (wild type, n=6) was not irradiated, and the modeling was terminated on day 4 after radiation.
To verify whether the protective effect of JAC4 on X-ray radiation-induced intestinal damage in mice is dependent on the expression of JWA, the present disclosure verified the targeting effect of JAC4 using JWA^IEC-ko mice.
JWA^IEC-ko and JWA^IEC-wt mice were treated daily with JAC4 (10 mg/kg) or an equal volume of vehicle (polyethylene glycol:ethanol:physiological saline=47.5:7.5:50, v/v/v), respectively, from 7 days before the ABI (10 Gy) exposure to 4 days after the exposure. […] Meanwhile, the contents of TNF-α and IL-1β were consistent with the results of FD4. […] As shown in panels E and F, ABI increased the activity of GSH-Px (530.8±207.8 vs. 406.2±197.9 U/mL) and decreased the activity of CAT (89.4 f 0.4 vs. 68.7±14.2 U/mL). JAC4 further enhanced the antioxidant enzymes in JWA^IEC-wt mice (815.1±203.9 vs. 530.8±207.8 U/mL and 85.9±8.2 vs. 68.7±14.2 U/mL; P<0.05, P<0.05). […] Intestinal tissues were isolated, and the expression of apoptotic molecules was detected by Western blot (FIG. 16J). In wild-type mice, compared with the control group, X-rays increased the expression of Bax and cleaved PARP1 in the small intestine.

Another test concerns SPCA-1 cells. In words: γ-H2AX foci and Western blot (DSBs), SPCA-1 (Example 22). Format: cell-based, human. Here is the method: To investigate the effect of JAC4 in combination with X-ray on DSBs in SPCA-1 and BEAS-2B cells, SPCA-1 and BEAS-2B cells were pretreated with 10 μM JAC4 for 24 h and 4 Gy X-ray for 2 h, and then subjected to γ-H2AX fluorescent labeling and Western immunoblot (see Example 4 for detailed procedures).
A general note: A western blot detects proteins with antibodies after separation by electrophoresis.

For another test, the system named is lung tissue. The experiment in a line: Inflammation level in lung tissue of xenograft mice (RT-PCR, HE) (Example 21). The test is classed as in vivo. Here is the method: After the modeling in Example 20 was completed, the inflammation level and DNA damage in the lung tissue were detected by the following specific procedures: 3 mice were randomly selected from each group to provide the lung tissue. About 20-30 mg of lung tissue was collected from each mouse in a centrifuge tube. The total RNA was isolated and extracted using the TRIzol reagent (Invitrogen) for RT-PCR (Reverse Transcription-Polymerase Chain Reaction) detection. The RNA was reversely transcribed into cDNA using a reverse transcription kit from Vazyme. Reaction system: 42° C., 2 min; 37° C., 15 min; 85° C., 5 s. The samples were preserved in a refrigerator at […] or −80° C. for later use. 30-35 PCR amplification cycles were performed. The data were analyzed by the ΔΔCt method using glyceraldehyde-3-phosphate dehydrogenase (GAPDH) as an internal standard and the AceQ qPCR SYBR Green Master Mix fluorescent quantitative PCR reagent from Vazyme on the 7900HT high throughput flash real-time fluorescent quantitative PCR system from Thermo Fisher Scientific for PCR assay. The results are shown in FIG. 29, with the following specific conditions: […]

The next test deals with BEAS-2B cells. The experiment in a line: CCK-8 cell viability, JAC4 with X-ray, BEAS-2B (Example 22). Format: cell-based, human. Particulars: 10 μM JAC4 24 h + 4 Gy X-ray 24 h. Here is the method:
SPCA-1 and BEAS-2B cells were cultured in a 90%/DMEM+10% FBS+100 μg/mL ciprofloxacin culture medium. The SPCA-1 and BEAS-2B cells were pretreated for 24 h with 10 μM JAC4 and subjected to 4 Gy X-ray treatment for 24 h and then CCK-8 detection, so as to explore the influence of JAC4 in combination with X-ray on the viability of SPCA-1 and BEAS-2B cells. The specific procedures are as follows:
1. SPCA-1 and BEAS-2B cells in the exponential growth phase were plated in a 96-well plate at 5,000 cells/well in triplicate for each group.
2. After 24 h of culture, when the cells fully adhered to the container wall and returned to normal morphology, the cells were treated with X-ray radiation of 0, 4, 8, 12, 16, or 20 Gy or JAC4 at 0, 1, 5, 10, 20, or 50 μM.
3. After 24 h of treatment, CCK-8 reagent was added at 10 μL/well, and the cells were incubated in a cell incubator for 1 h. The absorbance (OD) at 450 nm was measured.
4. Cell viability equation: cell viability (%)=[…]×100%/(ODcontrol−ODblank).

Where [1] appears, read: SPCA-1, 10 μM JAC4 + 4 Gy X-ray vs X-ray monotherapy.
[2] abbreviates: JAC4+X-ray group relative to X-ray group.

As for `c1ccc(CSc2nnc(C3COc4ccccc4O3)o2)nc1` (stereo not shown) [JAC4], in the test with IEC-6 cells, the “red/green fluorescence ratio (JC-1, mitochondrial membrane potential)” value is on record as 0.49±0.05. In the test with JWA^IEC-ko mice, the “enhancement of antioxidant enzymes (GSH-Px, CAT)” value was “not confirmed”; the “plasma FD4 content” value turned out to be 9192.8 ± 5573.2 ng/mL; the “plasma IL-1β” value was 65.6 ± 3.3 ng/mL; the “plasma TNF-α” value was determined as 769.8 ± 112.3 ng/mL. In the test with JWA^IEC-ko mice (day 4), this compound showed a crypt height of 53.0±3.0 μm and an intestinal villus length of 150.6±8.4 μm. Besides, in the test with SPCA-1 cells (SPCA-1, 10 μM JAC4 24 h + 4 Gy X-ray 2 h vs X-ray monotherapy), the γ-H2AX foci result was “increase”. Also, in the test on SPCA-1 cells (setting [1]), the “JWA expression level (Western blot)” value is “increased” and the “γ-H2AX expression level (Western blot)” value was “increased”. Moreover, in the test with lung tissue (setting [2]), the “mRNA level of anti-inflammatory factor IL-10 in lung tissue” value is 2.91 folds, the “mRNA level of proinflammatory factor IL-1P in lung tissue” value worked out at 0.43 folds, the “mRNA level of proinflammatory factor TGF-β1 in lung tissue” value is listed as 0.71 folds and the “mRNA level of proinflammatory factor TNF-α in lung tissue” value came to 0.63 folds. Further, in the test on lung tissue (JAC4 treatment in combination with X-ray therapy), the “HE staining of lung tissues” value was “reduced inflammatory cell infiltration”. Further, the “BEAS-2B cell viability (CCK-8)” value in the test on BEAS-2B cells is recorded as “alleviated the inhibitory effect of X-ray”.

These data come from patent publication US20250345318A1, “COMPOUND AND USE THEREOF IN PREVENTING OR TREATING RADIATION DAMAGE” (SIMCERE PHARMACEUTICAL CO., LTD., priority 2022, published 2025).
